{
  "source": "PubChem BioAssay AID1963832",
  "about": "(Molecular Pharmacology Branch, DTP, NCI, 2024);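 note: spheroids exposed to compounds for 7 days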",
  "test_system": "885724-159-R-J1-PDC complex spheroid viability",
  "test": "Anticancer human tumor 885724-159-R-J1-PDC patient-derived pancreatic adenocarcinoma cell line growth inhibition [POLQ]",
  "details": "for IC50: curve of first compound; for viability, T/C: stronger effect = lower value",
  "outline": "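Patient-derived tumour cells were co-cultured with HUVEC and mesenchymal stem cells as multicellular spheroids at 37 °C. They were treated with POLQ inhibitors (novobiocin, ART-558, RP6685) alone or combined with other agents. Top concentrations were at or near clinical Cmax (otherwise 10 microM; SN-38 at 1 microM), decreasing in half-log steps.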",
  "key": {"[1]": {"details": "second compound 0.0316 µM, first compound 0.00316 µM"}, "[2]": {"details": "second compound 0.0316 µM, first compound 0.01 µM"}, "[3]": {"details": "second compound 0.0316 µM, first compound 0.0316 µM"}, "[4]": {"details": "second compound 0.0316 µM, first compound 0.1 µM"}, "[5]": {"details": "second compound 0.0316 µM, first compound 0.316 µM"}, "[6]": {"details": "second compound 0.0316 µM, first compound 1 µM"}, "[7]": {"details": "second compound 0.1 µM, first compound 0.00316 µM"}, "[8]": {"details": "second compound 0.1 µM, first compound 0.01 µM"}, "[9]": {"details": "second compound 0.1 µM, first compound 0.0316 µM"}, "[10]": {"details": "second compound 0.1 µM, first compound 0.1 µM"}, "[11]": {"details": "second compound 0.1 µM, first compound 0.316 µM"}, "[12]": {"details": "second compound 0.1 µM, first compound 1 µM"}, "[13]": {"details": "second compound 0.316 µM, first compound 0.00316 µM"}, "[14]": {"details": "second compound 0.316 µM, first compound 0.01 µM"}, "[15]": {"details": "second compound 0.316 µM, first compound 0.0316 µM"}, "[16]": {"details": "second compound 0.316 µM, first compound 0.1 µM"}, "[17]": {"details": "second compound 0.316 µM, first compound 0.316 µM"}, "[18]": {"details": "second compound 0.316 µM, first compound 1 µM"}, "[19]": {"details": "second compound 1 µM, first compound 0.00316 µM"}, "[20]": {"details": "second compound 1 µM, first compound 0.01 µM"}, "[21]": {"details": "second compound 1 µM, first compound 0.0316 µM"}, "[22]": {"details": "second compound 1 µM, first compound 0.1 µM"}, "[23]": {"details": "second compound 1 µM, first compound 0.316 µM"}, "[24]": {"details": "second compound 1 µM, first compound 1 µM"}, "[25]": {"details": "second compound 3.16 µM, first compound 0.00316 µM"}, "[26]": {"details": "second compound 3.16 µM, first compound 0.01 µM"}, "[27]": {"details": "second compound 3.16 µM, first compound 0.0316 µM"}, "[28]": {"details": "second compound 3.16 µM, first compound 0.1 µM"}, "[29]": {"details": "second compound 3.16 µM, first compound 0.316 µM"}, "[30]": {"details": "second compound 3.16 µM, first compound 1 µM"}, "[31]": {"details": "second compound 10 µM, first compound 0.00316 µM"}, "[32]": {"details": "second compound 10 µM, first compound 0.01 µM"}, "[33]": {"details": "second compound 10 µM, first compound 0.0316 µM"}, "[34]": {"details": "second compound 10 µM, first compound 0.1 µM"}, "[35]": {"details": "second compound 10 µM, first compound 0.316 µM"}, "[36]": {"details": "second compound 10 µM, first compound 1 µM"}},
  "data": [
    {"smiles": "C=CCn1c(=O)c2cnc(Nc3ccc(N4CCN(C)CC4)cc3)nc2n1-c1cccc(C(C)(C)O)n1", "note": "+ Cc1cccc(N(C)C(=O)C2C(O)CCN2c2nc(C)cc(C(F)(F)F)c2C#N)c1", "values": [
      {"measurement": "IC50", "setting": "second compound 0.0316 µM", "value": "> 1000", "unit": "nM"},
      {"measurement": "IC50", "setting": "second compound 0.1 µM", "value": 771, "unit": "nM"},
      {"measurement": "IC50", "setting": "second compound 0.316 µM", "value": 435, "unit": "nM"},
      {"measurement": "IC50", "setting": "second compound 1 µM", "value": 856, "unit": "nM"},
      {"measurement": "IC50", "setting": "second compound 3.16 µM", "value": "> 1000", "unit": "nM"},
      {"measurement": "IC50", "setting": "second compound 10 µM", "value": 817, "unit": "nM"},
      {"measurement": "viability, T/C", "setting": "[1]", "value": 101, "unit": "%"},
      {"measurement": "viability, T/C", "setting": "[2]", "value": 95.6, "unit": "%"},
      {"measurement": "viability, T/C", "setting": "[3]", "value": 84.9, "unit": "%"},
      {"measurement": "viability, T/C", "setting": "[4]", "value": 72.6, "unit": "%"},
      {"measurement": "viability, T/C", "setting": "[5]", "value": 56.5, "unit": "%"},
      {"measurement": "viability, T/C", "setting": "[6]", "value": 51.1, "unit": "%"},
      {"measurement": "viability, T/C", "setting": "[7]", "value": 105, "unit": "%"},
      {"measurement": "viability, T/C", "setting": "[8]", "value": 98, "unit": "%"},
      {"measurement": "viability, T/C", "setting": "[9]", "value": 93, "unit": "%"},
      {"measurement": "viability, T/C", "setting": "[10]", "value": 77.2, "unit": "%"},
      {"measurement": "viability, T/C", "setting": "[11]", "value": 59.9, "unit": "%"},
      {"measurement": "viability, T/C", "setting": "[12]", "value": 47.2, "unit": "%"},
      {"measurement": "viability, T/C", "setting": "[13]", "value": 98.6, "unit": "%"},
      {"measurement": "viability, T/C", "setting": "[14]", "value": 97.9, "unit": "%"},
      {"measurement": "viability, T/C", "setting": "[15]", "value": 93.7, "unit": "%"},
      {"measurement": "viability, T/C", "setting": "[16]", "value": 73, "unit": "%"},
      {"measurement": "viability, T/C", "setting": "[17]", "value": 53.3, "unit": "%"},
      {"measurement": "viability, T/C", "setting": "[18]", "value": 43.6, "unit": "%"},
      {"measurement": "viability, T/C", "setting": "[19]", "value": 101, "unit": "%"},
      {"measurement": "viability, T/C", "setting": "[20]", "value": 93.8, "unit": "%"},
      {"measurement": "viability, T/C", "setting": "[21]", "value": 88.9, "unit": "%"},
      {"measurement": "viability, T/C", "setting": "[22]", "value": 70.1, "unit": "%"},
      {"measurement": "viability, T/C", "setting": "[23]", "value": 55, "unit": "%"},
      {"measurement": "viability, T/C", "setting": "[24]", "value": 49.4, "unit": "%"},
      {"measurement": "viability, T/C", "setting": "[25]", "value": 92.2, "unit": "%"},
      {"measurement": "viability, T/C", "setting": "[26]", "value": 96.5, "unit": "%"},
      {"measurement": "viability, T/C", "setting": "[27]", "value": 94.2, "unit": "%"},
      {"measurement": "viability, T/C", "setting": "[28]", "value": 77.7, "unit": "%"},
      {"measurement": "viability, T/C", "setting": "[29]", "value": 61.6, "unit": "%"},
      {"measurement": "viability, T/C", "setting": "[30]", "value": 50, "unit": "%"},
      {"measurement": "viability, T/C", "setting": "[31]", "value": 103, "unit": "%"},
      {"measurement": "viability, T/C", "setting": "[32]", "value": 84.8, "unit": "%"},
      {"measurement": "viability, T/C", "setting": "[33]", "value": 98.2, "unit": "%"},
      {"measurement": "viability, T/C", "setting": "[34]", "value": 82.7, "unit": "%"},
      {"measurement": "viability, T/C", "setting": "[35]", "value": 61.6, "unit": "%"},
      {"measurement": "viability, T/C", "setting": "[36]", "value": 47.5, "unit": "%"}
    ]},
    {"smiles": "COc1cccc(OCCCN)c1-c1cc(Nc2cnc(C#N)cn2)n[nH]1", "note": "+ COC1C(OC(N)=O)C(O)C(Oc2ccc3c(O)c(NC(=O)c4ccc(O)c(CC=C(C)C)c4)c(=O)oc3c2C)OC1(C)C", "values": [
      {"measurement": "IC50", "setting": "second compound 0.0316 µM", "value": 5.21, "unit": "nM"},
      {"measurement": "IC50", "setting": "second compound 0.1 µM", "value": 7.41, "unit": "nM"},
      {"measurement": "IC50", "setting": "second compound 0.316 µM", "value": 7.34, "unit": "nM"},
      {"measurement": "IC50", "setting": "second compound 1 µM", "value": 8.1, "unit": "nM"},
      {"measurement": "IC50", "setting": "second compound 3.16 µM", "value": 17.6, "unit": "nM"},
      {"measurement": "IC50", "setting": "second compound 10 µM", "value": 6.72, "unit": "nM"},
      {"measurement": "viability, T/C", "setting": "[1]", "value": 58.8, "unit": "%"},
      {"measurement": "viability, T/C", "setting": "[2]", "value": 45.9, "unit": "%"},
      {"measurement": "viability, T/C", "setting": "[3]", "value": 40.8, "unit": "%"},
      {"measurement": "viability, T/C", "setting": "[4]", "value": 41.1, "unit": "%"},
      {"measurement": "viability, T/C", "setting": "[5]", "value": 44.4, "unit": "%"},
      {"measurement": "viability, T/C", "setting": "[6]", "value": 46.8, "unit": "%"},
      {"measurement": "viability, T/C", "setting": "[7]", "value": 62.2, "unit": "%"},
      {"measurement": "viability, T/C", "setting": "[8]", "value": 46.1, "unit": "%"},
      {"measurement": "viability, T/C", "setting": "[9]", "value": 41.2, "unit": "%"},
      {"measurement": "viability, T/C", "setting": "[10]", "value": 42.3, "unit": "%"},
      {"measurement": "viability, T/C", "setting": "[11]", "value": 45.4, "unit": "%"},
      {"measurement": "viability, T/C", "setting": "[12]", "value": 39, "unit": "%"},
      {"measurement": "viability, T/C", "setting": "[13]", "value": 62.6, "unit": "%"},
      {"measurement": "viability, T/C", "setting": "[14]", "value": 45.3, "unit": "%"},
      {"measurement": "viability, T/C", "setting": "[15]", "value": 43.5, "unit": "%"},
      {"measurement": "viability, T/C", "setting": "[16]", "value": 46.9, "unit": "%"},
      {"measurement": "viability, T/C", "setting": "[17]", "value": 42.5, "unit": "%"},
      {"measurement": "viability, T/C", "setting": "[18]", "value": 40.8, "unit": "%"},
      {"measurement": "viability, T/C", "setting": "[19]", "value": 63.2, "unit": "%"},
      {"measurement": "viability, T/C", "setting": "[20]", "value": 48.5, "unit": "%"},
      {"measurement": "viability, T/C", "setting": "[21]", "value": 41.8, "unit": "%"},
      {"measurement": "viability, T/C", "setting": "[22]", "value": 35.9, "unit": "%"},
      {"measurement": "viability, T/C", "setting": "[23]", "value": 45.4, "unit": "%"},
      {"measurement": "viability, T/C", "setting": "[24]", "value": 46.4, "unit": "%"},
      {"measurement": "viability, T/C", "setting": "[25]", "value": 58.7, "unit": "%"},
      {"measurement": "viability, T/C", "setting": "[26]", "value": 55, "unit": "%"},
      {"measurement": "viability, T/C", "setting": "[27]", "value": 44.6, "unit": "%"},
      {"measurement": "viability, T/C", "setting": "[28]", "value": 44.2, "unit": "%"},
      {"measurement": "viability, T/C", "setting": "[29]", "value": 43.2, "unit": "%"},
      {"measurement": "viability, T/C", "setting": "[30]", "value": 39.6, "unit": "%"},
      {"measurement": "viability, T/C", "setting": "[31]", "value": 59.4, "unit": "%"},
      {"measurement": "viability, T/C", "setting": "[32]", "value": 45.4, "unit": "%"},
      {"measurement": "viability, T/C", "setting": "[33]", "value": 41.5, "unit": "%"},
      {"measurement": "viability, T/C", "setting": "[34]", "value": 44.3, "unit": "%"},
      {"measurement": "viability, T/C", "setting": "[35]", "value": 43.5, "unit": "%"},
      {"measurement": "viability, T/C", "setting": "[36]", "value": 45.1, "unit": "%"}
    ]}
  ]
}
